Laboratory results as given in patent US20120040951A1, “HETEROARYL COMPOUNDS USEFUL AS RAF KINASE INHIBITORS” (priority 2008, published 2012).
pEC50, pIC50: −log10 of the molar value. Read-outs that look alike come from different tables or passages of the source.

Assays:
[1] = test system: phospho-ERK in melanoma derived WM-266-4 cells; experiment: Mechanistic cellular assay for Raf kinase activity (phospho-ERK, Bio-Plex); assay type: cell-based; settings: treated 1-2 hr at 37° C., serum free medium, read-out: pERK EC50
Summary of the method: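 WM-266-4 melanoma cells (wild-type/V600D BRaf) grown overnight in 10% FBS RPMI, then treated 1–2 h at 37 °C in serum-free RPMI with eight 3-fold dilutions of compound (from 5 mM DMSO stock, 1000× dilution). Lysate phospho-ERK1,2 quantified by Bio-Plex bead immunoassay.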

V599E Raf = V599E Raf (Homo sapiens, UniProt P15056, V600E); experiment: Biochemical FRET assay, mutant Raf (phosphorylation of MEK); settings: 0.125 nM V599E Raf, 100 nM biotin-MEK, 25 μM ATP, read-out: Raf (mut) inhibition
V599E Raf, sequence (P15056 whole entry V600E): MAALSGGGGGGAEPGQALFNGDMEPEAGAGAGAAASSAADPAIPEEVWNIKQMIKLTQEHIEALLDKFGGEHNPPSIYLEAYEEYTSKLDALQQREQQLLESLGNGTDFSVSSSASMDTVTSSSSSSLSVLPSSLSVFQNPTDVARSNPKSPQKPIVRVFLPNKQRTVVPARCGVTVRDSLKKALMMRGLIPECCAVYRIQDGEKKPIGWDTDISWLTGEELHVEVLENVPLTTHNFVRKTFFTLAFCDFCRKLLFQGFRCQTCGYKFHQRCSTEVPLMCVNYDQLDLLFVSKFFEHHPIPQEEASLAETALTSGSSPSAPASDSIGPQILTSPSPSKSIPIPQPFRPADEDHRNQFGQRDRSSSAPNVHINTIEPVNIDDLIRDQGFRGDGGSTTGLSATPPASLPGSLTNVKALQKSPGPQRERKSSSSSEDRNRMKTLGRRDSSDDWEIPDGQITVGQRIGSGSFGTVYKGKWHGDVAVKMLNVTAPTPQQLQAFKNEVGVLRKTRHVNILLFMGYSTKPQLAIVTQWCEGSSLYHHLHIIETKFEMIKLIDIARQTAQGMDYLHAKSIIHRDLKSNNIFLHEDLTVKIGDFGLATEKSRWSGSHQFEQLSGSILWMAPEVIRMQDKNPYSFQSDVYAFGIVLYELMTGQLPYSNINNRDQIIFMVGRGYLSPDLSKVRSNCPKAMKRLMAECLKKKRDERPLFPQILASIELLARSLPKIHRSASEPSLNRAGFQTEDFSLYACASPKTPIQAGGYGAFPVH
Description: (1) Biochemical FRET Assay […]
Inhibitors were diluted 4-fold in 100% DMSO and added to a final concentration of 10 μM to 40 μM to a solution containing 100 nM biotin-MEK, 0.125 nM V599E Raf in 50 mM HEPES, pH 7.4, 60 mM NaCl, 3 mM MgCl2, 2 mM DTT, 0.25 mM MnCl2, 0.01% BSA, and 0.01% Tween-20 and incubated for 20 minutes at room temperature. The kinase reaction was started by the addition of 25 μM ATP to a final volume of 45 μl and allowed to progress for 60 minutes. The reaction was stopped with 15 mM EDTA and 20 nM Streptavidin-APC, 2.5 nM Polyclonal anti p-MEK1/2 (Ser217/221), 2.5 nM Eu-labeled anti-rabbit IgG were added in Lance detection buffer and 5% Superblock in PBS for a final volume of 100 μl. The detection reaction was incubated for 90 minutes at room temperature and then read on an Analyst plate reader using standard TR-FRET (time resolved fluorescence resonance energy transfer) settings for Eu and APC.
Compounds having an activity designated as “A” provided an IC50≦100 nM; compounds having an activity designated as “B” provided an IC50 of 100-1000 nM; and compounds having an activity designated as “C” provided an IC50 of 1000-10,000 nM.

Compound | pEC50 ([1]; Homo sapiens) | pIC50 (V599E Raf) | pEC50 [1]
CC(NC(=O)c1cc2c(cn1)ncn2C)c1cnc(Nc2cc(C(C)(C)C)ccc2F)s1 (stereo not shown) [Example 279] | ≥ 7.00 | ≥ 7.00 | –
CC(NC(=O)c1cc(N)ccn1)c1ncc(C(=O)Nc2cc(C(F)(F)F)c(Cl)cn2)s1 (stereo not shown) [Example 87] | 5.00 to 6.00 | 6.00 to 7.00 | –
C[C@@H](NC(=O)c1ccc2c(c1)OCCN2C)c1ncc(C(=O)Nc2cc(C(F)(F)F)c(Cl)cn2)s1 [Example 71] | 5.00 to 6.00 | ≥ 7.00 | –
CC(NC(=O)c1cc2c(cn1)ncn2CCO)c1cnc(Nc2ccc(C(F)(F)F)cc2)s1 (stereo not shown) [Example 25] | 6.00 to 7.00 | ≥ 7.00 | –
C[C@@H](NC(=O)c1cc2ncn(C)c2cn1)c1ncc(C(=O)Nc2cc(C(F)(F)F)c(Cl)cn2)s1 [Example 41] | 6.00 to 7.00 | ≥ 7.00 | –
CC(NC(=O)c1cc2cn(C)nc2cn1)c1cnc(Nc2ccc(C(F)(F)F)cc2)s1 (stereo not shown) [Example 203] | ≥ 7.00 | ≥ 7.00 | –
Cc1nc2cc(C(=O)N[C@H](C)c3ncc(C(=O)Nc4cc(C(F)(F)F)c(Cl)cn4)s3)ccc2n1C [Example 68] | 5.00 to 6.00 | ≥ 7.00 | –
CC(NC(=O)c1cnn2ccccc12)c1ncc(C(=O)Nc2cc(C(F)(F)F)c(Cl)cn2)s1 (stereo not shown) [Example 223] | ≥ 7.00 | 6.00 to 7.00 | –
COCCOc1cc(C(F)(F)F)ccc1Nc1ncc(C(C)NC(=O)c2cc3c(cn2)ncn3C)s1 (stereo not shown) [Example 282] | 6.00 to 7.00 | ≥ 7.00 | –
C[C@@H](NC(=O)c1ccc(N)cc1)c1ncc(C(=O)Nc2cc(C(F)(F)F)c(Cl)cn2)s1 [Example 54] | 5.00 to 6.00 | 6.00 to 7.00 | –
CCc1nc(C(C)(C)C)ncc1Nc1ncc(C(C)NC(=O)c2cc3c(cn2)ncn3C)s1 (stereo not shown) [Example 295] | ≥ 7.00 | 6.00 to 7.00 | –
CC(NC(=O)c1cc2c(cn1)ncn2CCN(C)C)c1cnc(Nc2ccc(C(F)(F)F)cc2)s1 (stereo not shown) [Example 7] | ≥ 7.00 | ≥ 7.00 | –
C[C@@H](NC(=O)c1cc2c(cn1)ncn2C1CN(C(=O)OC(C)(C)C)C1)c1cnc(Nc2ccc(C(F)(F)F)cc2)s1 [Example 24] | ≥ 7.00 | ≥ 7.00 | –
CC(NC(=O)c1cc2c(cn1)ncn2C)c1cnc(Nc2ccc(F)c(S(=O)(=O)C(F)(F)F)c2)cn1 (stereo not shown) [Example 268] | ≥ 7.00 | ≥ 7.00 | –
CC(NC(=O)c1cc2c(cn1)ncn2C)c1cnc(Nc2ccc(C(F)(F)F)cn2)cn1 (stereo not shown) [Example 264] | – | ≥ 7.00 | 6.00 to 7.00
Cc1nn(C)c(C)c1C(=O)N[C@H](C)c1ncc(C(=O)Nc2cc(C(F)(F)F)c(Cl)cn2)s1 [Example 110] | 5.00 to 6.00 | ≥ 7.00 | –
CC(NC(=O)c1ccc2nccnc2c1)c1cnc(Nc2ccc(C(F)(F)F)cc2)s1 (stereo not shown) [Example 73] | 6.00 to 7.00 | ≥ 7.00 | –
CC(NC(=O)c1cnn2cccnc12)c1cnc(Nc2ccc(C(F)(F)F)cc2)s1 (stereo not shown) [Example 225] | 5.00 to 6.00 | ≥ 7.00 | –

Compound | pEC50 ([1]; Homo sapiens) | pIC50 (V599E Raf) | pEC50 [1]
CC(NC(=O)c1cc2c(cn1)ncn2C)c1cnc(Nc2cc(C(N)=O)cc(C(C)(C)C)c2)s1 (stereo not shown) [Example 353] | 5.00 to 6.00 | ≥ 7.00 | –
C[C@@H](NC(=O)c1cnn2ccccc12)c1cc(C(=O)Nc2nc3ccc(F)cc3s2)on1 [Example 210] | – | 6.00 to 7.00 | –
CCn1cnc2cnc(C(=O)NC(C)c3cnc(Nc4ccc(Cl)c(C(F)(F)F)c4)cn3)cc21 (stereo not shown) [Example 233] | 6.00 to 7.00 | ≥ 7.00 | –
C[C@@H](NC(=O)c1cccc(N2CCOCC2)n1)c1ncc(C(=O)Nc2cc(C(F)(F)F)c(Cl)cn2)s1 [Example 90] | 6.00 to 7.00 | ≥ 7.00 | –
C[C@@H](NC(=O)c1cnn(C)c1N)c1ncc(C(=O)Nc2cc(C(F)(F)F)c(Cl)cn2)s1 [Example 127] | ≥ 7.00 | ≥ 7.00 | –
CC(NC(=O)c1cc2c(cn1)nc(N)n2C)c1cnc(Nc2ccc(C(F)(F)F)cc2)cn1 (stereo not shown) [Example 201] | ≥ 7.00 | ≥ 7.00 | –
CCCNc1ncc(C(=O)N[C@H](C)c2ncc(C(=O)Nc3cc(C(F)(F)F)c(Cl)cn3)s2)n1C [Example 153] | 5.00 to 6.00 | 6.00 to 7.00 | –
CCn1cnc2cnc(C(=O)NC(C)c3cnc(Nc4cnc(C(C)(C)C)nc4)s3)cc21 (stereo not shown) [Example 285] | ≥ 7.00 | ≥ 7.00 | –
C[C@@H](NC(=O)c1cc2c(cn1)ncn2C)c1cnc(Nc2ccc(C(F)(F)F)cc2)cn1 (single isomer, unassigned) [Example 37] | ≥ 7.00 | ≥ 7.00 | –
C[C@@H](NC(=O)c1cccc(N2CCCCC2)n1)c1ncc(C(=O)Nc2cc(C(F)(F)F)c(Cl)cn2)s1 [Example 94] | 5.00 to 6.00 | 6.00 to 7.00 | –
C[C@@H](NC(=O)c1cnn(C)c1CN1CCC(F)(F)C1)c1ncc(C(=O)Nc2cc(C(F)(F)F)c(Cl)cn2)s1 [Example 130] | 6.00 to 7.00 | 6.00 to 7.00 | –
CC(NC(=O)c1cc2c(cn1)ncn2C)c1cnc(Nc2ccc(C(F)(F)F)cc2Cl)cn1 (stereo not shown) [Example 265a] | 6.00 to 7.00 | ≥ 7.00 | –
C[C@@H](NC(=O)c1cnn2ccccc12)c1cc(C(=O)NC2CC(C)(C)NC(C)(C)C2)on1 [Example 216] | – | 5.00 to 6.00 | –
C[C@@H](NC(=O)c1cnn2ccccc12)c1cc(C(=O)NC2C[C@@H]3CC[C@H]2C3)on1 (stereo partly shown) [Example 213] | – | 5.00 to 6.00 | –
C[C@@H](NC(=O)c1cnn2ccccc12)c1cc(C(=O)Nc2nc(C(C)(C)C)ncc2N)no1 [Example 228] | – | 6.00 to 7.00 | –
CCc1ncc(C(=O)N[C@H](C)c2ncc(C(=O)Nc3cc(C(F)(F)F)c(Cl)cn3)s2)n1CC [Example 163] | 6.00 to 7.00 | – | –
CCN1CC(n2cnc3cnc(C(=O)NC(C)c4cnc(Nc5ccc(Cl)c(C(F)(F)F)c5)cn4)cc32)C1 (stereo not shown) [Example 235] | 6.00 to 7.00 | – | –

The remaining lines, values ahead:

pEC50 ([1]; Homo sapiens) | pIC50 (V599E Raf) | pEC50 [1] | Compound
6.00 to 7.00 | ≥ 7.00 | – | C[C@@H](NC(=O)c1ccc2[nH]ccc2c1)c1ncc(C(=O)Nc2cc(C(F)(F)F)c(Cl)cn2)s1 [Example 56]
6.00 to 7.00 | ≥ 7.00 | – | CC(=O)N1CC(n2cnc3cnc(C(=O)N[C@H](C)c4cnc(Nc5ccc(C(F)(F)F)cc5)s4)cc32)C1 [Example 347]
5.00 to 6.00 | ≥ 7.00 | – | CC(NC(=O)c1cnn(C)c1)c1cnc(Nc2ccc(C(F)(F)F)cc2)s1 (stereo not shown) [Example 109]
≥ 7.00 | ≥ 7.00 | – | CC(NC(=O)c1cc2c(cn1)ncn2C1CCC1)c1cnc(Nc2ccc(C(F)(F)F)nc2)s1 (stereo not shown) [Example 292]
5.00 to 6.00 | ≥ 7.00 | – | CC(NC(=O)c1cncc(N)c1)c1ncc(C(=O)Nc2cc(C(F)(F)F)c(Cl)cn2)s1 (stereo not shown) [Example 44]
≥ 7.00 | ≥ 7.00 | – | CC(NC(=O)c1cc2c(cn1)ncn2C)c1cnc(Nc2ccc(C(F)(F)F)cc2Cl)s1 (stereo not shown) [Example 245]
≥ 7.00 | ≥ 7.00 | – | CC(NC(=O)c1cc2c(cn1)ncn2C)c1cnc(Nc2cccc(C(C)(C)C(F)(F)F)c2)cn1 (stereo not shown) [Example 273]
5.00 to 6.00 | ≥ 7.00 | – | C[C@@H](NC(=O)c1cnn2ccccc12)c1cc(C(=O)Nc2nc3cc(Cl)ccc3o2)on1 [Example 212]
5.00 to 6.00 | ≥ 7.00 | – | C[C@@H](NC(=O)c1cnn(-c2ccccn2)c1)c1ncc(C(=O)Nc2cc(C(F)(F)F)c(Cl)cn2)s1 [Example 119]
5.00 to 6.00 | ≥ 7.00 | – | C[C@@H](NC(=O)c1cnc(CN2CCCC2)n1C)c1ncc(C(=O)Nc2cc(C(F)(F)F)c(Cl)cn2)s1 [Example 155]
6.00 to 7.00 | 6.00 to 7.00 | – | C[C@@H](NC(=O)c1cnn(C)c1CN1CCCC1)c1ncc(C(=O)Nc2cc(C(F)(F)F)c(Cl)cn2)s1 [Example 132]
6.00 to 7.00 | ≥ 7.00 | – | CC(NC(=O)c1cnn2ccccc12)c1cnc(Nc2ccc(C(F)(F)F)cc2)s1 (stereo not shown) [Example 224]
5.00 to 6.00 | ≥ 7.00 | – | CC(NC(=O)c1cc2ncn(C)c2cn1)c1cnc(Nc2ccc(C(F)(F)F)cc2)s1 (stereo not shown) [Example 1]
≥ 7.00 | ≥ 7.00 | – | C[C@@H](NC(=O)c1cc2c(cn1)ncn2[C@H]1CCN(C(=O)OC(C)(C)C)C1)c1cnc(Nc2ccc(C(F)(F)F)cc2)s1 [Example 29]
5.00 to 6.00 | ≥ 7.00 | – | CC(NC(=O)c1cc2c(cn1)ncn2CC(=O)O)c1cnc(Nc2ccc(C(F)(F)F)cc2)s1 (stereo not shown) [Example 354]
5.00 to 6.00 | ≥ 7.00 | – | Cc1n[nH]c(C)c1C(=O)N[C@H](C)c1ncc(C(=O)Nc2cc(C(F)(F)F)c(Cl)cn2)s1 [Example 111]
– | 5.00 to 6.00 | – | C[C@@H]1[C@]2(C)CC[C@@]1(C)[C@@H](NC(=O)c1cc([C@@H](C)NC(=O)c3cnn4ccccc34)no1)C2 [Example 215]
– | 6.00 to 7.00 | – | Cc1ccc(NC(=O)c2cc(C(C)(C)NC(=O)c3cnn4ccccc34)on2)cc1C(F)(F)F [Example 230]
≥ 7.00 | – | – | CC(NC(=O)c1cc2c(cn1)ncn2C(C)C)c1cnc(Nc2ccc(C(F)(F)F)cc2)s1 (stereo not shown) [Example 12]
≥ 7.00 | – | – | CC(NC(=O)c1cnn2c1CCCC2)c1cnc(Nc2ccc(C(F)(F)F)cc2)s1 (stereo not shown) [Example 83]
